Several values for one entry are separate records, joined by “and”; a condition that tells them apart may be missing. Equal values may be shown once. Toxic doses and inconclusive results are not listed. How the source made its calls: active means survival T/C of 150% or more; inactive means T/C below 125% in these data.
Test system: P388 leukemia ip, CD2F1 mice, survival T/C
Experiment: NCI In Vivo Anticancer Drug Screen. Data for tumor model P388 Leukemia (intraperitoneal) in CD2F1 (CDF1) mice
Settings: endpoint: median survival time, higher = longer survival
In short: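 Mice carrying the transplanted tumor received test compound or vehicle. Survival was recorded in each group, and the value is the treated-group measurement divided by that of the vehicle-treated control group.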

[1] = dose: 50.0 mg/kg/injection, schedule: Q01DX009 (ip), vehicle: Klucel (hydroxypropylcellulose) (HPC)
[2] = dose: 100.0 mg/kg/injection, schedule: Q01DX009 (ip), vehicle: Klucel (hydroxypropylcellulose) (HPC)
[3] = dose: 12.5 mg/kg/injection, schedule: Q01DX005 (ip), vehicle: saline with Tween-80
[4] = dose: 25.0 mg/kg/injection, schedule: Q01DX005 (ip), vehicle: saline with Tween-80
[5] = dose: 50.0 mg/kg/injection, schedule: Q01DX005 (ip), vehicle: saline with Tween-80
[6] = dose: 50.0 mg/kg/injection, schedule: Q01DX009 (ip), vehicle: saline with Tween-80
[7] = dose: 100.0 mg/kg/injection, schedule: Q01DX009 (ip), vehicle: saline with Tween-80
[8] = dose: 200.0 mg/kg/injection, schedule: Q01DX009 (ip), vehicle: saline with Tween-80
[9] = dose: 100.0 mg/kg/injection, schedule: Q04DX003 (ip), vehicle: saline with Tween-80
[10] = dose: 200.0 mg/kg/injection, schedule: Q04DX003 (ip), vehicle: saline with Tween-80
[11] = dose: 60.0 mg/kg/injection, schedule: Q01DX005 (ip), vehicle: saline with Tween-80
[12] = dose: 120.0 mg/kg/injection, schedule: Q01DX005 (ip), vehicle: saline with Tween-80
[13] = dose: 240.0 mg/kg/injection, schedule: Q01DX005 (ip), vehicle: saline with Tween-80
[14] = dose: 100.0 mg/kg/injection, schedule: Q01DX005 (ip), vehicle: saline with Tween-80
[15] = dose: 200.0 mg/kg/injection, schedule: Q01DX005 (ip), vehicle: saline with Tween-80

Measured: T/C

COB(C1CCCCC1)C1CCCCC1
inactive: dose: 50.0 mg/kg/injection, schedule: Q01DX009 (ip), vehicle: acetone 100 % of control | dose: 100.0 mg/kg/injection, schedule: Q01DX009 (ip), vehicle: acetone 105 % of control | dose: 200.0 mg/kg/injection, schedule: Q01DX009 (ip), vehicle: acetone 105 % of control

CC1C(O)CC23COC(=O)C2=CCCC3C1(C)CCC1COC(=O)C1 (centres undefined)
inactive: dose: 9.38 mg/kg/injection, schedule: Q01DX005 (ip), vehicle: Klucel (hydroxypropylcellulose) (HPC) 101 % of control | dose: 18.75 mg/kg/injection, schedule: Q01DX005 (ip), vehicle: Klucel (hydroxypropylcellulose) (HPC) 90 % of control | dose: 37.5 mg/kg/injection, schedule: Q01DX005 (ip), vehicle: Klucel (hydroxypropylcellulose) (HPC) 105 % of control | dose: 75.0 mg/kg/injection, schedule: Q01DX005 (ip), vehicle: Klucel (hydroxypropylcellulose) (HPC) 117 % of control

Cc1nn(-c2ccccc2)c2c1C(c1ccc([N+](=O)[O-])cc1)C(C#N)=C(N)O2 (centres undefined)
inactive: [1] 102 % of control | [2] 90 % of control | dose: 200.0 mg/kg/injection, schedule: Q01DX009 (ip), vehicle: Klucel (hydroxypropylcellulose) (HPC) 107 % of control

Cc1cc2c(C(C)C)c(O)c(O)c(C=NC3CCCCC3)c2c(O)c1-c1c(C)cc2c(C(C)C)c(O)c(O)c(C=NC3CCCCC3)c2c1O
inactive: [3] 103 % of control | [4] 92 % of control | [5] 88 % of control

Cc1ccc(S(=O)(=O)N/N=C/c2c(Cl)[nH]c3cc(C)c(O)cc23)cc1
inactive: dose: 25.0 mg/kg/injection, schedule: Q01DX001 (ip), vehicle: Klucel (hydroxypropylcellulose) (HPC) 100 % of control | dose: 50.0 mg/kg/injection, schedule: Q01DX001 (ip), vehicle: Klucel (hydroxypropylcellulose) (HPC) 105 % of control | dose: 100.0 mg/kg/injection, schedule: Q01DX001 (ip), vehicle: Klucel (hydroxypropylcellulose) (HPC) 103 % of control and 91 % of control | dose: 200.0 mg/kg/injection, schedule: Q01DX001 (ip), vehicle: Klucel (hydroxypropylcellulose) (HPC) 103 % of control | dose: 400.0 mg/kg/injection, schedule: Q01DX001 (ip), vehicle: Klucel (hydroxypropylcellulose) (HPC) 91 % of control

CC(C)(C)CC(C)(C)c1ccc(OCc2ccc(C(F)(F)F)cc2)cc1
inactive: [6] 100 % of control | [7] 96 % of control | [8] 100 % of control

O=C1C(=C(C(F)(F)F)C(F)(F)F)C2CCC1C2 (centres undefined)
inactive: dose: 3.13 mg/kg/injection, schedule: Q01DX009 (ip), vehicle: saline with Tween-80 100 % of control | dose: 6.25 mg/kg/injection, schedule: Q01DX009 (ip), vehicle: saline with Tween-80 110 % of control | dose: 12.5 mg/kg/injection, schedule: Q01DX009 (ip), vehicle: saline with Tween-80 100 % of control

O=c1c2ccccc2sc2c([N+](=O)[O-])ccc(NCCC3CCCN4CCCCC34)c12 (centres undefined)
inactive: dose: 44.5 mg/kg/injection, schedule: Q01DX005 (ip), vehicle: saline with Tween-80 95 % of control | dose: 89.0 mg/kg/injection, schedule: Q01DX005 (ip), vehicle: saline with Tween-80 94 % of control | dose: 178.0 mg/kg/injection, schedule: Q01DX005 (ip), vehicle: saline with Tween-80 96 % of control | dose: 356.0 mg/kg/injection, schedule: Q01DX005 (ip), vehicle: saline with Tween-80 100 % of control

O=c1nc(-c2ccccc2)sc(=O)[nH]1
inactive: [1] 102 % of control | [2] 111 % of control

CN(C)C1(c2ccccc2)N=NN=S1C (centres undefined)
inactive: [9] 105 % of control | [10] 105 % of control

c1cc2c(cc1CSCc1c(CSCc3ccc4c(c3)OCO4)c(CSCc3ccc4c(c3)OCO4)c(CSCc3ccc4c(c3)OCO4)c(CSCc3ccc4c(c3)OCO4)c1CSCc1ccc3c(c1)OCO3)OCO2
inactive: [6] 100 % of control | [7] 99 % of control | [8] 97 % of control

O=C1C=C2CCCCCCCCCCC2CC1 (centres undefined)
inactive: dose: 50.0 mg/kg/injection, schedule: Q01DX005 (ip), vehicle: Klucel (hydroxypropylcellulose) (HPC) 103 % of control | dose: 100.0 mg/kg/injection, schedule: Q01DX005 (ip), vehicle: Klucel (hydroxypropylcellulose) (HPC) 92 % of control | dose: 200.0 mg/kg/injection, schedule: Q01DX005 (ip), vehicle: Klucel (hydroxypropylcellulose) (HPC) 92 % of control

COCCn1c(N)c(C(=S)Nc2ccccc2)c(=O)[nH]c1=O
inactive: dose: 50.0 mg/kg/injection, schedule: Q01DX009 (ip), vehicle: saline 101 % of control | dose: 100.0 mg/kg/injection, schedule: Q01DX009 (ip), vehicle: saline 104 % of control | dose: 200.0 mg/kg/injection, schedule: Q01DX009 (ip), vehicle: saline 105 % of control

CCCCCCC(=O)/C=C/C=C/c1ccccc1
inactive: [9] 100 % of control | [10] 103 % of control | dose: 400.0 mg/kg/injection, schedule: Q04DX003 (ip), vehicle: saline with Tween-80 92 % of control

COc1ccc2nc(-n3[nH]c(C)c(-c4cc(C)nn4-c4ccccc4)c3=O)cc(C)c2c1
inactive: dose: 100.0 mg/kg/injection, schedule: Q01DX001 (ip), vehicle: saline with Tween-80 98 % of control | dose: 200.0 mg/kg/injection, schedule: Q01DX001 (ip), vehicle: saline with Tween-80 91 % of control

O=S(=O)(OC1=C/[C@H](S(=O)(=O)c2ccccc2)/C=C\[C@H](S(=O)(=O)c2ccccc2)/C=C\1)c1ccccc1
inactive: [11] 97 % of control | [12] 93 % of control | [13] 91 % of control

Nc1ncnc2ccccc12
inactive: dose: 12.5 mg/kg/injection, schedule: Q01DX009 (ip), vehicle: Klucel (hydroxypropylcellulose) (HPC) 107 % of control | dose: 25.0 mg/kg/injection, schedule: Q01DX009 (ip), vehicle: Klucel (hydroxypropylcellulose) (HPC) 89 % of control | [1] 108 % of control and 89 % of control | [2] 108 % of control

C=CC(c1ccccc1)C(O)(Cc1ccccc1)Cc1ccccc1 (centres undefined)
inactive: dose: 6.25 mg/kg/injection, schedule: Q01DX009 (ip), vehicle: DMSO 104 % of control | dose: 12.5 mg/kg/injection, schedule: Q01DX009 (ip), vehicle: DMSO 99 % of control | dose: 25.0 mg/kg/injection, schedule: Q01DX009 (ip), vehicle: DMSO 95 % of control

NS(=O)(=O)c1ccc(NCc2cnc3ccccc3n2)cc1
inactive: dose: 5.0 mg/kg/injection, schedule: Q01DX009 (ip), vehicle: saline 87 % of control | dose: 10.0 mg/kg/injection, schedule: Q01DX009 (ip), vehicle: saline 94 % of control | dose: 20.0 mg/kg/injection, schedule: Q01DX009 (ip), vehicle: saline 94 % of control

O=C1N=NC2NC=CN3C=CC=C1C23 (centres undefined)
inactive: [11] 102 % of control | [12] 107 % of control | [13] 110 % of control

CCOC(=Nc1ccc2ccccc2c1)SC(c1ccccc1)(c1ccccc1)c1ccccc1
inactive: [5] 107 % of control | [14] 95 % of control | [15] 87 % of control

CCCCC(=S)SSC(C)(C)C
inactive: [3] 108 % of control | [4] 115 % of control | [5] 100 % of control and 114 % of control

CCC(C)Nc1ccc(N)cc1 (centres undefined)
inactive: dose: 0.1 mg/kg/injection, schedule: Q01DX009 (ip), vehicle: carboxymethylcellulose (CMC) 115 % of control | dose: 0.39 mg/kg/injection, schedule: Q01DX009 (ip), vehicle: Klucel (hydroxypropylcellulose) (HPC) 95 % of control | dose: 0.4 mg/kg/injection, schedule: Q01DX009 (ip), vehicle: carboxymethylcellulose (CMC) 111 % of control | dose: 0.78 mg/kg/injection, schedule: Q01DX009 (ip), vehicle: Klucel (hydroxypropylcellulose) (HPC) 102 % of control | dose: 1.56 mg/kg/injection, schedule: Q01DX009 (ip), vehicle: Klucel (hydroxypropylcellulose) (HPC) 104 % of control and 110 % of control | dose: 3.12 mg/kg/injection, schedule: Q01DX009 (ip), vehicle: Klucel (hydroxypropylcellulose) (HPC) 100 % of control and 119 % of control | dose: 6.25 mg/kg/injection, schedule: Q01DX009 (ip), vehicle: Klucel (hydroxypropylcellulose) (HPC) 108 % of control and 112 % of control

O=C(NC(Cc1ccccc1)C(=O)O)C(=O)c1c[nH]c2ccc(Cl)cc12 (centres undefined)
inactive: [11] 100 % of control | [12] 96 % of control | [13] 94 % of control

Cc1cc(C)c2nc(C)c(C)[n+]([O-])c2c1
inactive: [5] 101 % of control | [14] 100 % of control | [15] 100 % of control

O=C(c1ccccc1)c1cc(Cl)ccc1NCC(O)COc1ccc(Cl)cc1 (centres undefined)
inactive: [11] 93 % of control | [12] 89 % of control | [13] 88 % of control
